Key:
cathepsin D = molecular target: T1, cathepsin D (Bos taurus, UniProt P80209); experiment: Exposure of LF digest to cathepsin D, persistence of the 6 kDa polypeptide; assay type: in vitro ADME, bovine; conditions: immunoblot
T1 construct: Prior to digestion with bovine spleen cathepsin D (Sigma); purchased Sigma; host or cells: bovine spleen (tissue-derived enzyme)
From the text: To establish which protease(s) could be responsible for releasing the N-terminal domain, LF processing by several proteases relevant to inflammation or microbial infections, including elastase, cathepsins G and D, a matrix metalloproteinase, and the “V8” protease from S. aureus, was examined. Of these, only cathepsin D, a lysosomal protease abundant in phagocytes (Bever et al., Inflammation 13: 309-16 (1989); Levy et al., Infect. Immun. 57: 1632-4 (1989)), was able to liberate the N-terminus intact as a small, heparin-binding, polypeptide. Exposure of either iron-saturated or iron-free LF to even small amounts of cathepsin D (1/200th, w:w) for a period as brief as five minutes yielded the N-terminal 6 kDa polypeptide, detectable by immunoblot analysis, using the N-terminal peptide-specific antibody. […] MALDI mass spectrometry analysis indicated a molecular mass of 5741 Da, very close to the value of 5744 Da expected for a LF polypeptide starting at Gly-1 and ending with Ala-49.
Purification of LF from human colostrum and proteolytic liberation of the antimicrobial domain in vitro. Frozen colostrum was thawed at 37° C. and defatted by centrifugation for 40 min at 10,000×g at 4° C. […] LF concentration was determined spectrophotometrically at 280 nm (using E280nm 1 cm 0.1%=1.0402). […]

P. aer. LPS = experiment: Limulus ELISA, ENC50 against P. aer. LPS; assay type: biochemical, Pseudomonas aeruginosa; conditions: endotoxin 200 EU/ml; mean +/− SD
Protocol: The peptide-mediated inhibition of endotoxin-induced Limulus amebocyte lysate (LAL) coagulation was measured with a sensitive LAL assay (Zhang et al., J. Clin. Microbiol. 32: 416-422 (1994)). Limulus ELISA is an endotoxin assay based on activation of the LAL coagulation by endotoxin and detection of the generated peptide-C immunoreactivity with an ELISA using a monoclonal antibody to the polypeptide. Endotoxin was defined to be neutralized when it lost its ability to activate the LAL enzymes. The 50% endotoxin-neutralizing concentration (ENC50) reflects the potency of an anti-endotoxin agent; a low ENC50 indicates high potency. Table 2 lists the determined ENC50 value of each anti-endotoxin agent against lipid A and four different types of LPS. The potency of each anti-endotoxin agent varied depending on the type of endotoxin. […] The only difference between the sequence of LF-33 and LF-27 is that LF-27 lacks the first six residues (GRRRRS) at the N-terminus of LF-33. Remarkably, this deletion led to dramatic loss of the endotoxin-neutralizing capacity of the polypeptide in this assay. Binding of serum proteins to endotoxin neutralizes the endotoxin activity in this assay by preventing endotoxin from activating LAL (Emancipator et al., Infect. Immun. 60: 596-601 (1992)).
LPS. […] LPS (purity >99%) from Neisseria meningitidis was prepared from the group B strain #6275 and its potency was 25 EU/ng. […] The potency of the above endotoxin was determined with the Limulus enzyme-linked immunosorbent assay (ELISA, 43) in comparison with US Pharmacopeia reference standard endotoxin EC-5.
Briefly, 25 μl endotoxin solution (200 EU/ml) was mixed with an equal volume of test materials in a series of two-fold dilution in 0.15 M NaCl in a sterile 96-well tissue culture plate (Nunc A/S, Roskilde, Denmark), and incubated at 37° C. for 1 h in a dry-air incubator. […] The endotoxin activity was then quantified with the use of Limulus ELISA (Zhang et al., J. Clin. Microbiol. 32: 416-422 (1994)). […] The high sensitivity of the assay allowed for very low levels of the endotoxin activity to be detected. […]

T1 sequence (P80209 45-390): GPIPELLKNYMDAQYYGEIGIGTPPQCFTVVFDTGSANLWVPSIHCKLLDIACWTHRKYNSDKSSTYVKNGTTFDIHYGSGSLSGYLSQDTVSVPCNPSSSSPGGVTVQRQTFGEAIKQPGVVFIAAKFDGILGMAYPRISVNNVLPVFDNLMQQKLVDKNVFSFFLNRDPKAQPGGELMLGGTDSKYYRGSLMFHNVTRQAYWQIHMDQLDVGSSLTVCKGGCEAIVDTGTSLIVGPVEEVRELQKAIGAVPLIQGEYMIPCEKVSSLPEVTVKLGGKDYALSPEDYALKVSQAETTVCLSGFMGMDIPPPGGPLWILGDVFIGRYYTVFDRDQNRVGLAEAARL

Molecule	stability of the polypeptide on longer exposure to cathepsin D (cathepsin D)	ENC50 against P. aer. LPS (P. aer. LPS)	IC50 (P. aer. LPS)
6 kDa polypeptide: 6 kDa fragment produced by cathepsin D digestion of human LF, amino acids 1-49 of SEQ ID NO: 2 (GRRRRSVQWCAVSQPEATKCFQWQRNMRKVRGPPVSCIKRDSPIQCIQA; listed as Homo sapiens)	stable and resistant to further degradation for at least three days		
CSCC[C@H](NC(=O)[C@H](CC(N)=O)NC(=O)[C@H](CCCNC(=N)N)NC(=O)[C@H](CCC(N)=O)NC(=O)[C@H](Cc1c[nH]c2ccccc12)NC(=O)[C@H](CCC(N)=O)NC(=O)[C@H](Cc1ccccc1)NC(=O)[C@H](CS)NC(=O)[C@H](CCCCN)NC(=O)[C@@H](NC(=O)[C@H](C)NC(=O)[C@H](CCC(=O)O)NC(=O)[C@@H]1CCCN1C(=O)[C@H](CCC(N)=O)NC(=O)[C@H](CO)NC(=O)[C@@H](NC(=O)[C@H](C)NC(=O)[C@H](CS)NC(=O)[C@H](Cc1c[nH]c2ccccc12)NC(=O)[C@H](CCC(N)=O)NC(=O)[C@@H](N)C(C)C)C(C)C)[C@@H](C)O)C(=O)N[C@@H](CCCNC(=N)N)C(=O)N[C@@H](CCCCN)C(=O)N[C@H](C(=O)N[C@@H](CCCNC(=N)N)C(=O)NCC(=O)N1CCC[C@H]1C(=O)O)C(C)C [LF-27]		no detectable activity	> 300 µM

From US6399570B1, “Antimicrobial/endotoxin neutralizing polypeptide” (priority 1999, dated 2002)
